Drawing on ChEMBL document CHEMBL5500383, “Recent advances and future directions on small molecule VEGFR inhibitors in oncological conditions” (Eur J Med Chem, 2024), this text covers IC50 for 11 compounds.

The subject of data set [1] is A498. As to the kind of experiment: Cytotoxicity against human A498 cells assessed as reduction in cell viability incubated for 48 hrs by MTT assay. Particulars: A498, 48 h. The class given is functional, cell-based.
Data set [2] concerns CAKI-1. As to the kind of experiment: Cytotoxicity against human CAKI-1 cells assessed as reduction in cell growth incubated for 48 hrs by MTT assay. The settings on record: CAKI-1, 48 h. The class given is functional, cell-based. For orientation: Tetrazolium dyes change colour on reduction, which living cells bring about.
Data set [3] can be described thus: Cytotoxicity against African green monkey Vero cells assessed as inhibition of cell growth incubated for 24 hrs by MTT assay. It is filed as toxicity, cell-based, Chlorocebus sabaeus.
Data set [4] has as its target T1, Vascular endothelial growth factor receptor 2 (Homo sapiens, UniProt P35968). As to the kind of experiment: Inhibition of human recombinant VEGFR2 using biotinylated poly-GluTyr (4:1) as susbtrate measured for 1 hr by ELISA method. On the technique in general: In an ELISA, binding on a coated surface is turned into a signal by an enzyme label.
The test system of data set [5] is MCF7. As to the kind of experiment: Cytotoxicity against human MCF7 cells assessed as reduction in cell viability measured after 72 hrs by MTT assay. The settings on record: MCF7, 72 h. It is filed as functional, cell-based.
For data set [6], the system named is HepG2. As to the kind of experiment: Cytotoxicity against human HepG2 cells assessed as reduction in cell viability measured after 72 hrs by MTT assay. The class given is functional, cell-based. The settings on record: HepG2, 72 h.
Data set [7] has as its system HCT-116. As to the kind of experiment: Cytotoxicity against human HCT-116 cells assessed as reduction in cell viability measured after 72 hrs by MTT assay. Particulars: HCT-116, 72 h. It is filed as functional, cell-based.
The test system of data set [8] is MCF7. As to the kind of experiment: Antiproliferative activity against human MCF7 cells assessed as cell growth inhibition measured for 24 hrs by MTT assay. The class given is functional, cell-based. Particulars: MCF7, 24 h.
Data set [9] concerns the target T1, Vascular endothelial growth factor receptor 2. As to the kind of experiment: Inhibition of human VEGFR2 by discoverX kinome scan assay.
For data set [10], the target named is Histone deacetylase 4 (Homo sapiens, UniProt P56524). As to the kind of experiment: Inhibition of HDAC4 (unknown origin).
Sequence of Histone deacetylase 4 (P56524 whole entry): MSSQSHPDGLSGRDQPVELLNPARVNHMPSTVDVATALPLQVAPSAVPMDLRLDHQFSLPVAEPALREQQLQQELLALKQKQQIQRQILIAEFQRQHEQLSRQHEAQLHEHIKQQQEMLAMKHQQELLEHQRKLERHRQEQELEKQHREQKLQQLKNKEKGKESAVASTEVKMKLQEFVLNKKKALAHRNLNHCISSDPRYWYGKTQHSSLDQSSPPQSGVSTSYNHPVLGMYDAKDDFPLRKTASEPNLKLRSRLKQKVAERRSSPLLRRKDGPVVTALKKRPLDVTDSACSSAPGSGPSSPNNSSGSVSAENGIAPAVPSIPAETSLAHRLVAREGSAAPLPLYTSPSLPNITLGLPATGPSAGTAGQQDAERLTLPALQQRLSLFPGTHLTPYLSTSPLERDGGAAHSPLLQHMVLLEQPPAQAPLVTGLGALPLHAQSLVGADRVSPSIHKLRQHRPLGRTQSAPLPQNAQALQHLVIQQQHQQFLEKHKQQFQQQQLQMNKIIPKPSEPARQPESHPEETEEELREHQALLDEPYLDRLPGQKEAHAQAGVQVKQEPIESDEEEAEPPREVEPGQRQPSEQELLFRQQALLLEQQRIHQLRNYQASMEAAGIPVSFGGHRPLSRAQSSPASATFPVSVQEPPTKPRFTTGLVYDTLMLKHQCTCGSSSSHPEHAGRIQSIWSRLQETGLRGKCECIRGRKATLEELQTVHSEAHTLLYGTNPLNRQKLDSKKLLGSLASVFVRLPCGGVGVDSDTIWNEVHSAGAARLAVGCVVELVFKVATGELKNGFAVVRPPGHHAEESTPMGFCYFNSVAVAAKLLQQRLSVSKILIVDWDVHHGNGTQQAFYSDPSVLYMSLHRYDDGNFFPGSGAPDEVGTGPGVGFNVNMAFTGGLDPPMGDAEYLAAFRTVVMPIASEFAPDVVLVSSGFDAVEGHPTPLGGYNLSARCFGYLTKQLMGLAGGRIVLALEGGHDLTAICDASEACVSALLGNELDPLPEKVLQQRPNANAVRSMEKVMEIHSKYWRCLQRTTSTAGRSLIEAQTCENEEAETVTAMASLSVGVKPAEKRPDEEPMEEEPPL
For data set [11], the target named is T1, Vascular endothelial growth factor receptor 2. As to the kind of experiment: Inhibition of VEGFR2 (unknown origin) incubated for 1 hr in presence of ATP by ELISA method.

pIC50: −log10 of the molar value.

T1 sequence (P35968 whole entry): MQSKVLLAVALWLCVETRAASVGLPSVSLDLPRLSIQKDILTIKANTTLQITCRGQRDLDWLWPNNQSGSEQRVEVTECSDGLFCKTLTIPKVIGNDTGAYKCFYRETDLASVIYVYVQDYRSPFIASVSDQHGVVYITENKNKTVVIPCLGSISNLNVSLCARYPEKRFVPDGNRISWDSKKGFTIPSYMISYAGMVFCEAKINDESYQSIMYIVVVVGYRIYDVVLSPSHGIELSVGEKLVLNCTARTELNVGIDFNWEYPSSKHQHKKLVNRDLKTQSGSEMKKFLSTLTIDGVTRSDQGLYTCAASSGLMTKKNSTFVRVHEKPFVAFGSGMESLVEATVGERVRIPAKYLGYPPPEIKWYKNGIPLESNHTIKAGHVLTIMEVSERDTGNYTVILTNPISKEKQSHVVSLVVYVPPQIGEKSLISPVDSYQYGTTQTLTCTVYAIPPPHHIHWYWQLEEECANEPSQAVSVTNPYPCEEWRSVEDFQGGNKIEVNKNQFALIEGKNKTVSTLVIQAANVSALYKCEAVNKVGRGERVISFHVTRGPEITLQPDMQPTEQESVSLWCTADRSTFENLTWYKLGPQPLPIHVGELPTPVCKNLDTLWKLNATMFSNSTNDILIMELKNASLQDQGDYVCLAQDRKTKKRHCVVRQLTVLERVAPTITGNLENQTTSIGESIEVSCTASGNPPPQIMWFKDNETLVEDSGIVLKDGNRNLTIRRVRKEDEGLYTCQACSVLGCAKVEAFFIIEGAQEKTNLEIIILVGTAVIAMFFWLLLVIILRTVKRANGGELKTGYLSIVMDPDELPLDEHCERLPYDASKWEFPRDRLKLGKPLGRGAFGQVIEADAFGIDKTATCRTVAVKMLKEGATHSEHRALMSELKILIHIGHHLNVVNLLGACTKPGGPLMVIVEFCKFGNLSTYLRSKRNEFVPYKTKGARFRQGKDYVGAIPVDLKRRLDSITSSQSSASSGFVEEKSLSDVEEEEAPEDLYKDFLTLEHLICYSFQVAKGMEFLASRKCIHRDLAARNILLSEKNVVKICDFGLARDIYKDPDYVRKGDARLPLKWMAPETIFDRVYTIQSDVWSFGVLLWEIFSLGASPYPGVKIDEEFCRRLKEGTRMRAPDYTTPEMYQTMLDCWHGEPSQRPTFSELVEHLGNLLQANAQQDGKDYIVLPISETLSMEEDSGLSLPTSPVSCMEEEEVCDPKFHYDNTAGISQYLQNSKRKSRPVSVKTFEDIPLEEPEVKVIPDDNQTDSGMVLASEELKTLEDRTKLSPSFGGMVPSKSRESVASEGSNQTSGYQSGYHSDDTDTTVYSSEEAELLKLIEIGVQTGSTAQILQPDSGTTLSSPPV

On to `COc1ccc(/C=N/n2c(-c3cc4ccccc4[nH]3)n[nH]c2=S)cc1`, for which the pIC50 – broadly, the IC50 on a negative log10 scale, so that one unit is a factor of ten – in data set [1] was 4.69; in data set [2], 5.79.
On the same counts, the results for `COc1ccc(/C=N/n2c(SCC(=O)c3ccc(Cl)cc3)nnc2-c2cc3ccccc3[nH]2)cc1` are 5.66 and 6.05.
`CCOC(=O)/C(=N\Nc1ccc(S(=O)(=O)Nc2nc(C)cc(C)n2)cc1)C(=O)NNc1ccccc1`: the IC50 – broadly, the point on the concentration scale where inhibition reaches its midpoint – at 24 h in [3] stood at 59.8 µM. For the same compound, the pIC50 in data set [4] was 6.82; in data set [5], 4.86; in data set [6], 5.05; in data set [7], 4.99.
On to `Cc1cc(NS(=O)(=O)c2ccc(NN=C3C(=O)NNC3=O)cc2)no1`, for which the IC50 at 24 h in [3] came to 36.3 µM. Moreover, the pIC50 in [4] was 6.82; in data set [5], 4.84; in data set [6], 5.06; in data set [7], 5.13.
As to `Cc1cc(C)nc(NS(=O)(=O)c2ccc(NN=C3C(=O)NNC3=O)cc2)n1`, the IC50 at 24 h in data set [3] came out at 39.4 µM. For the same compound, the pIC50 in [4] is 6.85; in [5], 4.98; in [6], 5.19; in data set [7] it was 5.02.
In the case of `Cc1ccc(/C=N/n2c(-c3cc4ccccc4[nH]3)n[nH]c2=S)cc1`, the pIC50 was 5.13 in data set [1] and 5.20 in data set [2].
On to `Cc1cc(Oc2ncnc3sc4c(c23)CCCCC4)ccc1Cl`, for which the pIC50 in data set [8] was 6.18.
With `CCNC(=S)NS(=O)(=O)c1ccc(NC(=O)CSc2cc3ccccc3c(=O)n2CC)cc1`, the pIC50 in data set [9] was 5.51.
Take `Cc1c2ccc(N(C)c3ccnc(Nc4ccc(C(=O)Nc5ccccc5N)cc4)n3)cc2nn1C`: the pIC50 in [10] was less than 5.00.
Consider `COc1cc(-c2nc(SCC(=O)Nc3ccc(C(C)=O)cc3)[nH]c(=O)c2C#N)cc(OC)c1OC`, for which the pIC50 in data set [11] was 3.70.
On to `CNC(=O)c1nc(Nc2ccc(NC(=O)Nc3cccc(C)c3)cc2)c2ccccc2n1`, for which the pIC50 in data set [11] is 7.92.
